{"source": "PubChem BioAssay (NCI)", "experiment_in_all_cases": "DTP human tumour cell line panel, 48 h", "key": {"UO-31 renal": {"tested_on": "UO-31 renal"}, "SK-MEL-28 melanoma": {"tested_on": "SK-MEL-28 melanoma"}, "SK-MEL-5 melanoma": {"tested_on": "SK-MEL-5 melanoma"}, "TK-10 renal": {"tested_on": "TK-10 renal"}, "SNB-19 CNS": {"tested_on": "SNB-19 CNS"}, "SF-539 CNS": {"tested_on": "SF-539 CNS"}, "COLO 205 colon": {"tested_on": "COLO 205 colon"}, "NCI-H23 lung": {"tested_on": "NCI-H23 lung"}, "HOP-92 NSCLC": {"tested_on": "HOP-92 NSCLC"}, "HOP-62 NSCLC": {"tested_on": "HOP-62 NSCLC"}, "MDA-MB-231 breast": {"tested_on": "MDA-MB-231 breast"}, "U251 CNS": {"tested_on": "U251 CNS"}, "SK-MEL-2 melanoma": {"tested_on": "SK-MEL-2 melanoma"}, "MCF7 breast": {"tested_on": "MCF7 breast"}, "MALME-3M melanoma": {"tested_on": "MALME-3M melanoma"}, "MOLT-4 leukemia": {"tested_on": "MOLT-4 leukemia"}, "IGROV1 ovarian": {"tested_on": "IGROV1 ovarian"}, "MDA-MB-435": {"tested_on": "MDA-MB-435"}, "SW-620 colon": {"tested_on": "SW-620 colon"}, "OVCAR-4 ovarian": {"tested_on": "OVCAR-4 ovarian"}, "MDA-N": {"tested_on": "MDA-N"}, "A549 NSCLC": {"tested_on": "A549 NSCLC"}, "RXF 393 renal": {"tested_on": "RXF 393 renal"}, "OVCAR-3 ovarian": {"tested_on": "OVCAR-3 ovarian"}, "M14 melanoma": {"tested_on": "M14 melanoma"}, "ACHN renal": {"tested_on": "ACHN renal"}, "SK-OV-3 ovarian": {"tested_on": "SK-OV-3 ovarian"}, "RPMI-8226 leukemia": {"tested_on": "RPMI-8226 leukemia"}, "DU-145 prostate": {"tested_on": "DU-145 prostate"}, "UACC-257 melanoma": {"tested_on": "UACC-257 melanoma"}, "OVCAR-8 ovarian": {"tested_on": "OVCAR-8 ovarian"}, "SF-295 CNS": {"tested_on": "SF-295 CNS"}, "SR leukemia": {"tested_on": "SR leukemia"}, "K-562 leukemia": {"tested_on": "K-562 leukemia"}, "T-47D breast": {"tested_on": "T-47D breast"}, "HCC-2998 colon": {"tested_on": "HCC-2998 colon"}, "LOX IMVI melanoma": {"tested_on": "LOX IMVI melanoma"}, "NCI-H460 lung": {"tested_on": "NCI-H460 lung"}, "PC-3 prostate": {"tested_on": "PC-3 prostate"}, "CAKI-1 renal": {"tested_on": "CAKI-1 renal"}, "CCRF-CEM leukemia": {"tested_on": "CCRF-CEM leukemia"}, "UACC-62 melanoma": {"tested_on": "UACC-62 melanoma"}, "NCI/ADR-RES ovarian": {"tested_on": "NCI/ADR-RES ovarian"}, "HCT-15 colon": {"tested_on": "HCT-15 colon"}, "HL-60(TB) leukemia": {"tested_on": "HL-60(TB) leukemia"}, "HT29 colon": {"tested_on": "HT29 colon"}, "OVCAR-5 ovarian": {"tested_on": "OVCAR-5 ovarian"}, "EKVX NSCLC": {"tested_on": "EKVX NSCLC"}, "A498 renal": {"tested_on": "A498 renal"}}, "note": "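Growth conditions: 96-well plates. Treatment: test compound, 48 hours, 5 concentrations. Analysis: linear interpolation between bracketing concentrations; unreached endpoints set to highest concentration. TGI: total growth inhibition.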"}
{"smiles": "CCOC(=O)c1csc(NC(=O)CCN2CCOCC2)n1", "values": [{"measurement": "TGI", "setting": "UO-31 renal", "value": "> 100", "unit": "µM"}, {"measurement": "TGI", "setting": "SK-MEL-28 melanoma", "value": "> 100", "unit": "µM"}, {"measurement": "TGI", "setting": "SK-MEL-5 melanoma", "value": "> 100", "unit": "µM"}, {"measurement": "TGI", "setting": "TK-10 renal", "value": "> 100", "unit": "µM"}, {"measurement": "TGI", "setting": "SNB-19 CNS", "value": "> 100", "unit": "µM"}, {"measurement": "TGI", "setting": "SF-539 CNS", "value": "> 100", "unit": "µM"}, {"measurement": "TGI", "setting": "COLO 205 colon", "value": "> 100", "unit": "µM"}, {"measurement": "TGI", "setting": "NCI-H23 lung", "value": "> 100", "unit": "µM"}, {"measurement": "TGI", "setting": "HOP-92 NSCLC", "value": "> 100", "unit": "µM"}, {"measurement": "TGI", "setting": "HOP-62 NSCLC", "value": "> 100", "unit": "µM"}, {"measurement": "TGI", "setting": "MDA-MB-231 breast", "value": "> 100", "unit": "µM"}, {"measurement": "TGI", "setting": "U251 CNS", "value": "> 100", "unit": "µM"}, {"measurement": "TGI", "setting": "SK-MEL-2 melanoma", "value": "> 100", "unit": "µM"}, {"measurement": "TGI", "setting": "MCF7 breast", "value": "> 100", "unit": "µM"}, {"measurement": "TGI", "setting": "MALME-3M melanoma", "value": "> 100", "unit": "µM"}, {"measurement": "TGI", "setting": "MOLT-4 leukemia", "value": 81.1, "unit": "µM"}, {"measurement": "TGI", "setting": "IGROV1 ovarian", "value": "> 100", "unit": "µM"}, {"measurement": "TGI", "setting": "MDA-MB-435", "value": "> 100", "unit": "µM"}, {"measurement": "TGI", "setting": "SW-620 colon", "value": "> 100", "unit": "µM"}, {"measurement": "TGI", "setting": "OVCAR-4 ovarian", "value": "> 100", "unit": "µM"}, {"measurement": "TGI", "setting": "MDA-N", "value": "> 100", "unit": "µM"}, {"measurement": "TGI", "setting": "A549 NSCLC", "value": "> 100", "unit": "µM"}, {"measurement": "TGI", "setting": "RXF 393 renal", "value": "> 100", "unit": "µM"}, {"measurement": "TGI", "setting": "OVCAR-3 ovarian", "value": "> 100", "unit": "µM"}, {"measurement": "TGI", "setting": "M14 melanoma", "value": "> 100", "unit": "µM"}, {"measurement": "TGI", "setting": "ACHN renal", "value": "> 100", "unit": "µM"}, {"measurement": "TGI", "setting": "SK-OV-3 ovarian", "value": "> 100", "unit": "µM"}, {"measurement": "TGI", "setting": "RPMI-8226 leukemia", "value": "> 100", "unit": "µM"}, {"measurement": "TGI", "setting": "DU-145 prostate", "value": "> 100", "unit": "µM"}, {"measurement": "TGI", "setting": "UACC-257 melanoma", "value": "> 100", "unit": "µM"}, {"measurement": "TGI", "setting": "OVCAR-8 ovarian", "value": 87.2, "unit": "µM"}, {"measurement": "TGI", "setting": "SF-295 CNS", "value": "> 100", "unit": "µM"}, {"measurement": "TGI", "setting": "SR leukemia", "value": "> 100", "unit": "µM"}, {"measurement": "TGI", "setting": "K-562 leukemia", "value": "> 100", "unit": "µM"}, {"measurement": "TGI", "setting": "T-47D breast", "value": "> 100", "unit": "µM"}, {"measurement": "TGI", "setting": "HCC-2998 colon", "value": "> 100", "unit": "µM"}, {"measurement": "TGI", "setting": "LOX IMVI melanoma", "value": "> 100", "unit": "µM"}, {"measurement": "TGI", "setting": "NCI-H460 lung", "value": "> 100", "unit": "µM"}, {"measurement": "TGI", "setting": "PC-3 prostate", "value": "> 100", "unit": "µM"}, {"measurement": "TGI", "setting": "CAKI-1 renal", "value": "> 100", "unit": "µM"}, {"measurement": "TGI", "setting": "CCRF-CEM leukemia", "value": "> 100", "unit": "µM"}, {"measurement": "TGI", "setting": "UACC-62 melanoma", "value": "> 100", "unit": "µM"}, {"measurement": "TGI", "setting": "NCI/ADR-RES ovarian", "value": "> 100", "unit": "µM"}, {"measurement": "TGI", "setting": "HCT-15 colon", "value": "> 100", "unit": "µM"}, {"measurement": "TGI", "setting": "HL-60(TB) leukemia", "value": 94.4, "unit": "µM"}, {"measurement": "TGI", "setting": "HT29 colon", "value": "> 100", "unit": "µM"}, {"measurement": "TGI", "setting": "OVCAR-5 ovarian", "value": "> 100", "unit": "µM"}, {"measurement": "TGI", "setting": "EKVX NSCLC", "value": "> 100", "unit": "µM"}, {"measurement": "TGI", "setting": "A498 renal", "value": "> 100", "unit": "µM"}]}
